Experimental data published in patent publication US20240059689A1, “PURINE DERIVATIVES AS ANTICANCER AGENTS” (Tango Therapeutics, Inc., priority 2021, published 2024).
pIC50: −log10 of the molar value.

Tests used:
USP1-UAF1 = USP1-UAF1 (Homo sapiens, UniProt O94782); experiment: Ubiquitin Rhodamine assay of USP1-UAF1 activity; format: biochemical
Experimental: Certain compounds of the disclosure were assessed for USP1-UAF1 activity in a Ubiquitin Rhodamine assay as described in Biology Example 1.

HCC1954 = experiment: Viability assay, BRCA1 WT cell line HCC1954; format: cell-based; conditions: Homo sapiens, HCC1954, viability, read-out: HCC1954 rel IC50
Text: (§1) Table 1 also indicates IC50 values in a viability assay for a non-isogenic pair of BRCA1 mutant (column 5-MDA-MB-436) and BRCA1 WT (column 6—HCC1954) cell lines. These values indicate the effect of treatment with compound on cell survival.

monoubiquitinated PCNA = experiment: AlphaLISA assay measuring monoubiquitinated PCNA in MDA-MB-436; format: cell-based; conditions: Homo sapiens, MDA-MB-436, monoubiquitinated PCNA, read-out: Alpha Lisa IC50
Text: Table 1 also indicates IC50 values for exemplary compounds in an AlphaLISA assay measuring monoubiquitinated PCNA in a BRCA1 mutant cell line (MDA-MB-436; column 7).

MDA-MB-436 = experiment: Viability assay, BRCA1 mutant cell line MDA-MB-436; format: cell-based; conditions: Homo sapiens, MDA-MB-436, viability, BRCA1 mutant MDA-MB-436; read-out: MDA-MB-436 rel IC50
Text: as §1

Chain of USP1-UAF1 (O94782 whole entry): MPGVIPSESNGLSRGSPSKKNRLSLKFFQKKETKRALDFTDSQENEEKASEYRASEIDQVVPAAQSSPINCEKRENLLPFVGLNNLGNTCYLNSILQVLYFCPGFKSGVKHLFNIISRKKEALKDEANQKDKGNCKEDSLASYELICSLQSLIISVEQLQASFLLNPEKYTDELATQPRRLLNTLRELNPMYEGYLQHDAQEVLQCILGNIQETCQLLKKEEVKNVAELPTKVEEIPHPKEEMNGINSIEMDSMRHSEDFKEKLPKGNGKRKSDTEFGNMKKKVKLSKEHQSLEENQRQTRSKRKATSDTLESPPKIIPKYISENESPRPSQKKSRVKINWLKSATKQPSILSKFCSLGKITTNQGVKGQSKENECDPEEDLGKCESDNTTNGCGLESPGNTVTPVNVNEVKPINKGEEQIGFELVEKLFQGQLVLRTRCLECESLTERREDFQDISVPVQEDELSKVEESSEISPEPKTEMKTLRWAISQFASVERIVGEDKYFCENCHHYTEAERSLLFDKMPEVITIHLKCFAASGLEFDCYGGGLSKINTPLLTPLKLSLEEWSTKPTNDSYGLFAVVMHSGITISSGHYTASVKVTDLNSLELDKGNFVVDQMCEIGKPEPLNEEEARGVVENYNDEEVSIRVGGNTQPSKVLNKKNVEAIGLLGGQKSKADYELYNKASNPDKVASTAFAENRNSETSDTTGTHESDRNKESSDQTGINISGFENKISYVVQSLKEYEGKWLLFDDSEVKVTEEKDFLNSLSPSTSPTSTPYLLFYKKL
Chain of USP1-UAF1 (Q8TAF3 whole entry partner): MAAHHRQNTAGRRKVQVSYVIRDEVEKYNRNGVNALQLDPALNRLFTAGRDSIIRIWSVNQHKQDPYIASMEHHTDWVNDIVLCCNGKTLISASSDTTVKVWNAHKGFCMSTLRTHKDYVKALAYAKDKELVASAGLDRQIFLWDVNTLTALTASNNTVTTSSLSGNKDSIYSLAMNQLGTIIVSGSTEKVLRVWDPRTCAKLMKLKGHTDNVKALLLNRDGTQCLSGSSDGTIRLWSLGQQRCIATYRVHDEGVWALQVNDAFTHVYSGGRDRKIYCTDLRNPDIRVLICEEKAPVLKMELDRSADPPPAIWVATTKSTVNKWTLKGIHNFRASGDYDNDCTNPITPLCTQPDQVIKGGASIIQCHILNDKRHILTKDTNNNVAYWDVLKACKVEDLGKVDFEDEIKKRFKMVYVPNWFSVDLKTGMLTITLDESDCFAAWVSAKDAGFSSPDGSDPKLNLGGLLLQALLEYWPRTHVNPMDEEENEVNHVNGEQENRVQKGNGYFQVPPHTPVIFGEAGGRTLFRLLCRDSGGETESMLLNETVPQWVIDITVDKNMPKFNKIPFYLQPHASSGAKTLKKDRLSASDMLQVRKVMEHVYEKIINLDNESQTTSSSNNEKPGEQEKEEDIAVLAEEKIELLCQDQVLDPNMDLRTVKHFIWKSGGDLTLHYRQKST

Row | Compound | pIC50 (USP1-UAF1) | pIC50 (HCC1954) | pIC50 (monoubiquitinated PCNA) | pIC50 (MDA-MB-436)
1 | Cn1cc(C(F)(F)F)nc1-c1ccc(Cn2c(=N)n(C)c3cnc(-c4cccnc4OCC(F)(F)F)nc32)cc1 [Example T-079, 7-methyl-9-[[4-[1-methyl-4-(trifluoromethyl)imidazol-2-yl]phenyl]methyl]-2-[2-(2,2,2-trifluoroethoxy)-3-pyridyl]purin-8-imine] | 5.00 to 7.00 | ≤ 5.00 | 6.60 to 7.00 | 5.00 to 6.60
2 | COc1nc(C#N)ccc1-c1ncc2c(n1)n(Cc1ccc(-c3nc(C(F)(F)F)cn3C)cc1)c(=N)n2C [Example T-085] | 5.00 to 7.00 | 5.00 to 6.60 | 5.00 to 6.60 | 5.00 to 6.60
3 | COc1ncccc1-c1ncc2c(n1)n(Cc1ccc(-c3nc(C(F)(F)F)cn3C)cc1)c(=N)n2C [Example T-090] | 5.00 to 7.00 | ≤ 5.00 | 5.00 to 6.60 | 5.00 to 6.60
4 | COc1ncccc1-c1ncc2c(n1)n(Cc1ccc(-c3nc(C(F)(F)F)cn3CCF)cc1)c(=N)n2C [Example T-093] | 5.00 to 7.00 | ≤ 5.00 | 5.00 to 6.60 | 5.00 to 6.60
5 | COc1ncnc(C2CC2)c1-c1ncc2c(n1)n(Cc1ccc(-n3nc(C(F)(F)F)cc3C)cc1)c(=N)n2CC(F)(F)F [Example T-098, 2-(4-cyclopropyl-6-methoxy-pyrimidin-5-yl)-9-[[4-[5-methyl-3-(trifluoromethyl)pyrazol-1-yl]phenyl]methyl]-7-(2,2,2-trifluoroethyl)purin-8-imine] | 7.00 to 7.52 | ≤ 5.00 | 6.60 to 7.00 | > 7.00
6 | CC(C)c1ccccc1-c1ncc2c(n1)n(Cc1ccc(-c3nc(C(F)(F)F)cn3C3CN(C)C3)cc1)c(=N)n2C [Example T-099, 2-(2-isopropylphenyl)-7-methyl-9-(4-(1-(1-methylazetidin-3-yl)-4-(trifluoromethyl)-1H-imidazol-2-yl)benzyl)-7H-purin-8(9H)-imine] | 5.00 to 7.00 | ≤ 5.00 | 6.60 to 7.00 | > 7.00
7 | COc1ncnc(C2CC2)c1-c1ncc2c(n1)n(Cc1ccc(-n3nc(C(F)F)cc3OC)cc1)c(=N)n2CC(F)(F)F [Example T-100, 2-(4-cyclopropyl-6-methoxy-pyrimidin-5-yl)-9-[[4-[3-(difluoromethyl)-5-methoxy-pyrazol-1-yl]phenyl]methyl]-7-(2,2,2-trifluoroethyl)purin-8-imine] | 5.00 to 7.00 | ≤ 5.00 | 6.60 to 7.00 | 6.60 to 7.00
8 | COc1nc(C)nc(C2CC2)c1-c1ncc2c(n1)n(Cc1ccc(-c3nc(C(F)(F)F)cn3C)cc1)c(=N)n2CC(F)(F)F [Example T-102, 2-(4-cyclopropyl-6-methoxy-2-methyl-pyrimidin-5-yl)-9-[[4-[1-methyl-4-(trifluoromethyl)imidazol-2-yl]phenyl]methyl]-7-(2,2,2-trifluoroethyl)purin-8-imine] | 5.00 to 7.00 | ≤ 5.00 | 5.00 to 6.60 | 6.60 to 7.00
9 | Cn1cc(C(F)(F)F)nc1-c1ccc(Cn2c(=N)n(C)c3cnc(-c4c(C5CC5)ncnc4C(F)(F)F)nc32)cc1 [Example T-103, 2-(4-cyclopropyl-6-(trifluoromethyl)pyrimidin-5-yl)-7-methyl-9-(4-(1-methyl-4-(trifluoromethyl)-1H-imidazol-2-yl)benzyl)-7H-purin-8(9H)-imine] | 7.00 to 7.52 | ≤ 5.00 | 6.60 to 7.00 | 6.60 to 7.00
10 | COc1ncnc(C2CC2)c1-c1ncc2c(n1)n(Cc1ccc(-c3nc(C(F)(F)F)oc3C)cc1)c(=N)n2CC(F)(F)F [Example T-104, 2-(4-cyclopropyl-6-methoxy-pyrimidin-5-yl)-9-[[4-[5-methyl-2-(trifluoromethyl)oxazol-4-yl]phenyl]methyl]-7-(2,2,2-trifluoroethyl)purin-8-imine] | 5.00 to 7.00 | ≤ 5.00 | 5.00 to 6.60 | 6.60 to 7.00
11 | [2H]C([2H])([2H])Oc1ncnc(C2CC2)c1-c1ncc2c(n1)n(Cc1ccc(-c3nc(C(F)(F)F)cn3C)c(CC)c1)c(=N)n2CC(F)(F)F [Example T-105, 2-[4-cyclopropyl-6-(trideuteriomethoxy)pyrimidin-5-yl]-9-[[3-ethyl-4-[1-methyl-4-(trifluoromethyl)imidazol-2-yl]phenyl]methyl]-7-(2,2,2-trifluoroethyl)purin-8-imine] | 5.00 to 7.00 | ≤ 5.00 | 5.00 to 6.60 | 5.00 to 6.60
12 | COc1ncnc(C2CC2)c1-c1ncc2c(n1)n(Cc1ccc(-c3nc(C(F)(F)F)cn3C)c(C)c1)c(=N)n2CC(F)(F)F [Example T-107, 2-(4-cyclopropyl-6-methoxy-pyrimidin-5-yl)-9-[[3-methyl-4-[1-methyl-4-(trifluoromethyl)imidazol-2-yl]phenyl]methyl]-7-(2,2,2-trifluoroethyl)purin-8-imine] | 5.00 to 7.00 | ≤ 5.00 | 6.60 to 7.00 | 6.60 to 7.00
13 | COc1ncnc(C2CC2)c1-c1ncc2c(n1)n(Cc1ccc(-c3nc(C(F)(F)F)cn3C(C)C)cc1)c(=N)n2CC(F)(F)F [Example T-108] | 7.00 to 7.52 | ≤ 5.00 | > 7.00 | > 7.00

Continued, values first:

Row | pIC50 (USP1-UAF1) | pIC50 (HCC1954) | pIC50 (monoubiquitinated PCNA) | pIC50 (MDA-MB-436) | Compound
14 | 7.00 to 7.52 | 5.00 to 6.60 | > 7.00 | 6.60 to 7.00 | CC(C)c1cc(C#N)ccc1-c1ncc2c(n1)n(Cc1ccc(-c3nc(C(F)(F)F)cn3C)cc1)c(=N)n2C [Example T-071, 4-[8-imino-7-methyl-9-[[4-[1-methyl-4-(trifluoromethyl)imidazol-2-yl]phenyl]methyl]purin-2-yl]-3-isopropyl-benzonitrile]
15 | 7.00 to 7.52 | ≤ 5.00 | 6.60 to 7.00 | 5.00 to 6.60 | CC(C)c1ncccc1-c1ncc2c(n1)n(Cc1ccc(-c3nc(C(F)(F)F)cn3C)cc1)c(=N)n2C [Example T-076, 2-(2-isopropyl-3-pyridyl)-7-methyl-9-[[4-[1-methyl-4-(trifluoromethyl)imidazol-2-yl]phenyl]methyl]purin-8-imine]
16 | > 7.52 | ≤ 5.00 | > 7.00 | > 7.00 | COc1ncnc(C2CC2)c1-c1ncc2c(n1)n(Cc1ccc(-n3nc(C(F)(F)F)cc3OC)cc1)c(=N)n2C [Example T-078]
17 | > 7.52 | ≤ 5.00 | > 7.00 | 6.60 to 7.00 | CC(C)c1ccccc1-c1ncc2c(n1)n(Cc1ccc(-c3nc(C(F)(F)F)cn3C)cc1O)c(=N)n2C [Example T-081]
18 | > 7.52 | ≤ 5.00 | > 7.00 | > 7.00 | Cn1cc(C(F)(F)F)nc1-c1ccc(Cn2c(=N)n(C)c3cnc(-c4cccnc4OC(F)F)nc32)cc1 [Example T-082, 2-[2-(difluoromethoxy)-3-pyridyl]-7-methyl-9-[[4-[1-methyl-4-(trifluoromethyl)imidazol-2-yl]phenyl]methyl]purin-8-imine]
19 | > 7.52 | 5.00 to 6.60 | 6.60 to 7.00 | 6.60 to 7.00 | CC(C)c1ccccc1-c1nc(C(F)(F)F)c2c(n1)n(Cc1ccc(-c3nc(C(F)(F)F)cn3C)cc1)c(=N)n2C [Example T-084]
20 | > 7.52 | 5.00 to 6.60 | > 7.00 | > 7.00 | Cn1cc(C(F)(F)F)nc1-c1ccc(Cn2c(=N)n(C)c3cnc(-c4ccccc4C4CC4)nc32)cc1 [Example T-087, 2-(2-cyclopropylphenyl)-7-methyl-9-[[4-[1-methyl-4-(trifluoromethyl)imidazol-2-yl]phenyl]methyl]purin-8-imine]
21 | 7.00 to 7.52 | 5.00 to 6.60 | 5.00 to 6.60 | 5.00 to 6.60 | Cc1cc(Cn2c(=N)n(C)c3cnc(-c4ccccc4C(F)(F)F)nc32)ccc1-c1nc(C(F)(F)F)c[nH]1 [Example T-092]
22 | > 7.52 | ≤ 5.00 | > 7.00 | > 7.00 | CCOc1cc(C(F)(F)F)nn1-c1ccc(Cn2c(=N)n(C)c3cnc(-c4c(OC)ncnc4C4CC4)nc32)cc1 [Example T-094]
23 | 7.00 to 7.52 | ≤ 5.00 | > 7.00 | > 7.00 | COc1ncnc(C2CC2)c1-c1ncc2c(n1)n(Cc1ccc(-c3nc(C(F)(F)F)cn3C)cc1)c(=N)n2CC(F)(F)F [Example T-095, 2-(4-cyclopropyl-6-methoxy-pyrimidin-5-yl)-9-[[4-[1-methyl-4-(trifluoromethyl)imidazol-2-yl]phenyl]methyl]-7-(2,2,2-trifluoroethyl)purin-8-imine]
24 | 7.00 to 7.52 | ≤ 5.00 | 5.00 to 6.60 | 6.60 to 7.00 | COc1ncccc1-c1ncc2c(n1)n(Cc1ccc(-c3nc(C(F)(F)F)cn3C)cc1)c(=N)n2CC(F)(F)F [Example T-097, 2-(2-methoxy-3-pyridyl)-9-[[4-[1-methyl-4-(trifluoromethyl)imidazol-2-yl]phenyl]methyl]-7-(2,2,2-trifluoroethyl)purin-8-imine]
25 | > 7.52 | ≤ 5.00 | > 7.00 | > 7.00 | CCn1cc(C(F)(F)F)nc1-c1ccc([C@@H](C)n2c(=N)n(CC(F)(F)F)c3cnc(-c4c(OC)ncnc4C4CC4)nc32)cc1 [Example T-106, (R)-2-(4-cyclopropyl-6-methoxypyrimidin-5-yl)-9-(1-(4-(1-ethyl-4-(trifluoromethyl)-1H-imidazol-2-yl)phenyl)ethyl)-7-(2,2,2-trifluoroethyl)-7H-purin-8(9H)-imine]
